Data published in patent US10168317B2, “Microfluidic device, system, and method for tracking single cells and single cell lineages” (CORNELL UNIVERSITY, priority 2012, dated 2019).
Several values for one entry are separate records, joined by “and”; a condition that tells them apart may be missing. Equal entries are not always repeated. Entries after “also recorded” stand apart in the source; their conditions may differ.

Legend:
cells = settings: straight confinement microchannels; cited from earlier work
cell invasion = settings: together with protease inhibitors; cited from earlier work
[1] = tested on: MDA-MB-231 metastatic breast cancer cells; test: Cell morphology after taxol treatment in the microfluidic device; assay type: cell-based, human
Source text: FIGS. 29A-29B illustrate cancer cells treated with the chemotherapeutic taxol in embodiments of a microfluidic device and system of the present invention. […] FIG. 29B: This more extended morphology from taxol-treated cells after failed mitosis resembles the morphology of K20T cells, which are the taxol-resistant variant of the MDA-MB-231 cells.
FIGS. 29A-29B show cancer cells treated with the chemotherapeutic taxol in embodiments of a microfluidic device and system of the present invention. […] They also lose the ability to divide properly, resulting in an extensive blebbing phase followed by cytoskeletal recovery. After failed mitosis and recovery, the cells take on a different, more extended morphology, typically with more edges and extensions. This new morphology resembles the taxol-resistant variant of these cells. […] For timelapse stacks, 34 minutes elapsed between each frame.

MDA-MB-231 cells [2] = test: Serial micropipette: pressure-driven transit across sequential subnucleus-scaled constrictions; assay type: cell-based, human; settings: 10 μM taxol for 1 day
Experimental: MDA-MB-231 cells were obtained from the NCl Physical-Sciences and Oncology Center. They were cultured in Leibovitz L-15 media (Life Technologies) with 10% fetal bovine serum (Atlanta Biologicals) and 1% Penicillin-Streptavidin (Life Technologies) at 37° C. without CO2.
Devices were treated with 1% bovine serum albumin (BSA) (Sigma-Aldrich) in serum-free media (L-15) for several hours before experiments in order to prevent stiction. Additionally, cells used in experiments were resuspended in serum-free media. Cells were loaded into the inlet reservoir of the device and experiments were automatically conducted as described in the design and operations section of this paper. The device was placed and kept on a heating plate set at 37° C. Videos were recorded at 500 ms per frame under a microscope, which produced the data of the experiments. Experimental analysis and cell tracking were performed using ImageJ and custom MATLAB programs. For statistical analysis, one-way ANOVA was used to determine statistical significance. Error bars on data represent standard error of the mean (s.e.m.). For taxol experiments, cells were incubated in 10 μM taxol (Cytoskeleton, Inc.) for 1 day prior to experiments. For fluorescence experiments, NucBlue (a live nucleus counterstain that is formulated from Hoechst 33342) (Life Technologies) was used and cells were incubated in the dye in complete growth media for 15 minutes.
The device consists of parallel microchannels. Each channel contains a series of microconstrictions to serve as a serial micropipette capable of deforming objects multiple times via pressure driven flow. The larger region of the channel has a width of 15 μm, which is on the order of the size of a cell. The smaller constriction region is 3.3 μm, which is smaller than the cell nucleus, thus ensuring that the cell undergoes a substantial deformation that samples a key organelle in the cell that often limits cell squeezing in physiological landscapes due to its size and stiffness. […]

MDA-MB-231 cells [3] = test: MUSIC device: cell invasion across subnucleus barriers (SNI), timelapse; assay type: cell-based, human; settings: for ability to invade across subnucleus barriers / tight spaces: taxol (Paclitaxel)-treated MDA-MB-231 cells
Experimental: (§1) MDA-MB-231 cells were obtained from the NCl PS-OC and the ATCC. They were cultured in Leibovitz L-15 media (Life Technologies) supplemented with 10% fetal bovine serum (Atlanta Biologicals) and 1% Penicillin-Streptavidin (Life Technologies). K20T cells were obtained from the Giannakakou lab at Weill Cornell Medical College. They are a taxol-resistant derivative of MDA-MB-231 cells (K. M. Wiesen et al., Cancer Letters, 2007, 257, 227-235). They were cultured in L-15 media supplemented with 10% fetal bovine serum, 1% Penicillin-Streptavidin, and 15 nM paclitaxel (taxol) (Cytoskeleton, Inc). All cells were incubated at 37° C. without supplemented CO2.
Cells were loaded into the inlet reservoir regions at the ends of the microchannels and allowed to spontaneously migrate into the three-dimensionally confined channels. Devices with cells were incubated as in regular cell culture as described above. Timelapse experiments were performed once the cells were in the channels. For each experiment, devices were placed on top of a heating plate maintained at 37° C. Typical durations for timelapse experiments were around 1-2 days at a temporal resolution of 3.4 minutes. Cell tracking and measurements were performed by manual tracing via ImageJ. Data processing and analysis were performed via custom programs on MATLAB. The height of the microchannels used for all experiments with quantitative analysis was 10 μm. […] For statistical analysis, the Chi-squared test was used for probability measurements, and ANOVA statistics were used for all other measurements, unless otherwise specified. Error bars are standard error of the mean (s.e.m.). Standard DAPI staining was used for fluorescence imaging in FIG. 9. For cell viability in these devices, we found in a typical timelapse experiment of ˜23 hrs that less than 10% (5 out of 54) of the cells died while occupying the experimental field of view.
To develop an assay that can directionally focus the cell invasion program for high throughput quantitative analysis, we designed and fabricated a microfluidic device that induces serial dimensional modulation on the cell and nucleus scale (FIG. 3). We refer to this herein as a MUlti-staged Serial Invasion Channels (MUSIC) device. […] Then we incorporate a spatially tapering interface that connects the confinement channel to another even smaller channel (referred to as the subnucleus barrier (SNB)) with width smaller than the cell nucleus, which is one of the largest and stiffest organelles in the cell (P. Friedl et al., Current Opinion in Cell Biology, 2011, 23, 55-64). […] This device design in essence directs and reduces the 3-D invasion program into a 2-component process—1) the cell migrates in the x-direction while 2) necessarily altering its y-dimensions. Because the migration vector points in one direction (x) and the primary induced region of change is in the orthogonal direction (y), high throughput quantitative analysis can now be accomplished in 1-D, thus increasing the feasibility of experiments and enabling predetermined axes of interest. Furthermore, repeating patterns of the subnucleus barrier are placed along the length of the microchannel, enabling serial effects and multiple sampling of individual cells, therefore providing a way to elucidate the plasticity of mechanisms of invasion for each cell. In our experiments, we consider both 1) cell invasion in only the larger confinement channel region (referred to as LCI) and 2) invasion from the larger channel across the subnucleus barrier (referred to as SNI). Our device design incorporates two different lengths for the SNB—10 μm (SNB10) and 60 μm (SNB60), which are shorter and longer than a typical MDA-MB-231 cell, respectively.
To understand higher order effects of cell invasion, we first identified the nonlinearity in the cell displacement function during SNI. Then we segmented the process into 4 distinct phases and measured the time constants of each phase. […]

MDA-MB-231 cells [4] = test: MUSIC device: cell migration in the larger channel LC (speed, mean-squared displacement); assay type: cell-based, human
Experimental: as §1
Cells were loaded into the inlet reservoir regions at the ends of the microchannels and allowed to spontaneously migrate into the three-dimensionally confined channels. Devices with cells were incubated as in regular cell culture as described above. Timelapse experiments were performed once the cells were in the channels. For each experiment, devices were placed on top of a heating plate maintained at 37° C. Typical durations for timelapse experiments were around 1-2 days at a temporal resolution of 3.4 minutes. Cell tracking and measurements were performed by manual tracing via ImageJ. Data processing and analysis were performed via custom programs on MATLAB. The height of the microchannels used for all experiments with quantitative analysis was 10 μm. […] Standard DAPI staining was used for fluorescence imaging in FIG. 9. […]
To develop an assay that can directionally focus the cell invasion program for high throughput quantitative analysis, we designed and fabricated a microfluidic device that induces serial dimensional modulation on the cell and nucleus scale (FIG. 3). […] Because the migration vector points in one direction (x) and the primary induced region of change is in the orthogonal direction (y), high throughput quantitative analysis can now be accomplished in 1-D, thus increasing the feasibility of experiments and enabling predetermined axes of interest. […]

MDA-MB-231 cells [5] = test: Single-cell lineage drug response in parallel microfluidic channels; assay type: cell-based, human; settings: 1 nM Paclitaxel, constant treatment, day 2 and day 6, about one week
Experimental: FIG. 26 illustrates breast cancer cells treated with 1 nM Paclitaxel at day 2 (top) and day 6 (bottom) from initial treatment, as observed in one embodiment of a microfluidic device/microfluidic system of the present invention. […] The emergence of drug resistance can therefore be identified at the single-cell and single-cell lineage level, which can provide better biological resolution and can identify the onset of resistance more quickly especially if only a rare subpopulation of the bulk cells is resistant.
To move forward, we will expand these studies to distinguish the difference in drug responsivity between individual cell lineages enabled by our cell isolation technique previously described, and we will extend the time-scale of these experiments to accommodate for the emergence of drug resistance.

| Compound | effect on migration rates in confinement (cells) | effect on cell invasion in combination with protease inhibitors (cell invasion) | cell morphology after failed mitosis ([1]; taxol-treated cells after failed mitosis and recovery) | cell morphology after treatment ([1]; taxol-treated cells before failed mitosis) | transit time across the first constriction (MDA-MB-231 cells [2]; 10 μm-long constriction, about 400 pa, n=26) [s] | transit times across subsequent constrictions, taxol treated vs untreated cells (MDA-MB-231 cells [2]; constrictions 2 to 5) | cell length in the microchannel (cell size) (MDA-MB-231 cells [2]; n=26) [μm] | total invasion time across subnucleus barrier SNB10 (MDA-MB-231 cells [3]; 16 µM) [h] | factor of difference in total SNI time, treated vs untreated cells (MDA-MB-231 cells [3]; barrier 10 μm long, 16 μM taxol) | ability to invade across subnucleus barriers / tight spaces (MDA-MB-231 cells [3]) | ability to invade across subnucleus barriers / tight spaces (MDA-MB-231 cells [3]; listed as Paclitaxel) | total invasion time across subnucleus barrier SNB10 (MDA-MB-231 cells [3]; taxol-treated MDA-MB-231 cells, 16 μM taxol (printed 1604), 10 μm long barrier, lower-bound measurement, many cells not permeated by end of experiment) [h] | total invasion time across subnucleus barrier SNB60 (MDA-MB-231 cells [3]; taxol-treated MDA-MB-231 cells, 16 μM taxol (printed 1604), 60 μm long barrier, lower-bound measurement) [h] | factor of difference in average cell speed between treated and untreated cells (MDA-MB-231 cells [4]; larger channel region LC, 16 μM taxol) | power-law exponent of mean-squared displacement vs. time (MSD ∝ t^x) (MDA-MB-231 cells [4]; taxol-treated MDA-MB-231 cells in larger channel LC, n=10 cells, non-linear least squares fit) | average speed in the larger channel LC (MDA-MB-231 cells [4]; taxol-treated MDA-MB-231 cells, 16 μM (printed 1604), 3.4 minute time interval, n=10) [μm/min] | viability and proliferation of single-cell lineages under drug (MDA-MB-231 cells [5]) |
| --- | --- | --- | --- | --- | --- | --- | --- | --- | --- | --- | --- | --- | --- | --- | --- | --- | --- |
| COC(=O)Nc1nc2ccc(C(=O)c3cccs3)cc2[nH]1 [Nocodazole] | migration rates are affected | – | – | – | – | – | – | – | – | – | – | – | – | – | – | – | – |
| C[C@@H](N)[C@H]1CC[C@H](C(=O)Nc2ccncc2)CC1 [Y27632] | – | synergistic effects in preventing cell invasion | – | – | – | – | – | – | – | – | – | – | – | – | – | – | – |
| CC(=O)O[C@H]1C(=O)[C@@]2(C)[C@H]([C@H](OC(=O)c3ccccc3)[C@]3(O)C[C@H](OC(=O)[C@H](O)[C@@H](NC(=O)c4ccccc4)c4ccccc4)C(C)=C1C3(C)C)[C@]1(OC(C)=O)CO[C@@H]1C[C@@H]2O [taxol, paclitaxel] | migration rates are affected | – | recover a more extended morphology | less extended, more rounded morphology | 550 ± 109 | transit times collapse between the two cell groups | 31±2 | ≥ 22 | > 20 | reduced ability in invading across tight spaces | can no longer invade | > 20 | ≥ 22 | ~2 | 1 and 1.014 | 0.53 | many cells underwent apoptosis but a select lineage continues to propagate; also recorded: many other cells in other channels underwent apoptosis after failed cell division |
